One assay concerns the target T1, human CYP11B2 (Homo sapiens, UniProt P19099).
T1 construct: expressed in transfected cells
T1 sequence (P19099 25-503): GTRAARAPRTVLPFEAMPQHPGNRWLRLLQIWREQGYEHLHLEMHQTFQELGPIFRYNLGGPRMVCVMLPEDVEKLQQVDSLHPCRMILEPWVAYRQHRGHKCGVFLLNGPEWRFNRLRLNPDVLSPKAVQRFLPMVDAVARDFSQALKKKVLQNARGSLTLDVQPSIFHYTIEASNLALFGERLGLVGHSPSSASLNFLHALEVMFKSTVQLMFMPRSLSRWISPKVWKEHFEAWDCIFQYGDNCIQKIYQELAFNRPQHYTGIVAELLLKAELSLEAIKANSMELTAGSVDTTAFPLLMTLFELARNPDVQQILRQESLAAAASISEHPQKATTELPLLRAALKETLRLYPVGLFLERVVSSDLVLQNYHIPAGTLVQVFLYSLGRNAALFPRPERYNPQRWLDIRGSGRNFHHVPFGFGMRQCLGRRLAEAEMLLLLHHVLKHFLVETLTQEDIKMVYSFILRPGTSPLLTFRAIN
Description: G-402 cellular enzyme assay, human CYP11B2 (aldosterone release, HTRF). It counts as cell-based. Particulars: G-402 cells, 1 μM Deoxycorticosterone. The gist of the method: (§1)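 Steroid output from supernatants, quantified by HTRF as cortisol for CYP11B1 or aldosterone for CYP11B2, gave EC50 values by least-squares 4-parameter MMF fitting against inhibitor concentration. Stably transfected G-402 cells carrying the human enzyme received 1 μM deoxycortisol or 1 μM deoxycorticosterone respectively, 16 h, DMEM/F12 with 2.5% charcoal-stripped FCS.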
Background: Time-resolved FRET reads energy transfer from a long-lived donor to a nearby acceptor.

Another assay deals with T2, human CYP11B1 (Homo sapiens, UniProt P15538).
T2 construct: expressed in transfected cells
T2 sequence (P15538 25-503): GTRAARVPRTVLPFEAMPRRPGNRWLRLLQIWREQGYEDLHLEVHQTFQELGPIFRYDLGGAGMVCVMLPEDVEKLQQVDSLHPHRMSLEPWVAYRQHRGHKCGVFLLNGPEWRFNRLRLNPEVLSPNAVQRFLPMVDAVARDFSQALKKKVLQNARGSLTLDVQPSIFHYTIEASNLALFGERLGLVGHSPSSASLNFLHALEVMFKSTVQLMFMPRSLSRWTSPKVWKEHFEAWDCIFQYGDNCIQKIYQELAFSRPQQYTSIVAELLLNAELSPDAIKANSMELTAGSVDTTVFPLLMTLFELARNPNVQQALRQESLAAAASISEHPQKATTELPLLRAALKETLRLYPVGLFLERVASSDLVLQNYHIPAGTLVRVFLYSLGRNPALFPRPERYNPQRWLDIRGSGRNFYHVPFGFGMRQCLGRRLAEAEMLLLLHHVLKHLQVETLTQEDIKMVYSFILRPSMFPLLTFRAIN
Description: G-402 cellular enzyme assay, human CYP11B1 (cortisol release, HTRF). Type of assay: cell-based. The note with it: G-402 cells, 1 μM Deoxycortisol. The gist of the method: as §1

Consider `CCC(=O)NC1CCCc2c1cncc2N1C(=O)c2ccc(Cl)cc2C1(C)C` (racemic) [Example 468, N-[4-(6-Chloro-1,1-dimethyl-3-oxo-1,3-dihydro-isoindol-2-yl)-5,6,7,8-tetrahydro-isoquinolin-8-yl]-propionamide], for which the values for the EC50 at human CYP11B2 and on human CYP11B1 were 52.8 nM and 2660 nM, respectively.

With `CCS(=O)(=O)N1CC[C@H](Oc2cncc(N3C(=O)c4ccc(Cl)cc4C3(C)C)c2)C1` [Example 448, 5-Chloro-2-[5-((S)-1-ethanesulfonyl-pyrrolidin-3-yloxy)-pyridin-3-yl]-3,3-dimethyl-2,3-dihydro-isoindol-1-one], the EC50 (usually the concentration at which the effect is half-maximal) is 21.2 nM on human CYP11B2 and 1980 nM on human CYP11B1.

Take `O=C1c2ccc(Cl)cc2CCN1c1cncc(CN2CCC3(COC3)C2)c1` [Example 170, 6-Chloro-2-[5-(2-oxa-6-aza-spiro[3.4]oct-6-ylmethyl)-pyridin-3-yl]-3,4-dihydro-2H-isoquinolin-1-one]: the EC50 at human CYP11B2 was 3.5 nM; on human CYP11B1, 14.6 nM.

For the molecule `CCC1c2cc(Cl)ccc2C(=O)N1c1cccnc1` (stereo not drawn) [Example 125, 5-Chloro-3-ethyl-2-pyridin-3-yl-2,3-dihydro-isoindol-1-one], the concentration giving a half-maximal response (EC50) at human CYP11B2 is 121 nM; at human CYP11B1, 3340 nM.

In the case of `CCC1c2cc(Cl)ccc2C(=O)N1c1cncc(OC)c1` (stereo not drawn) [Example 127, 5-Chloro-3-ethyl-2-(5-methoxy-pyridin-3-yl)-2,3-dihydro-isoindol-1-one], the EC50 at human CYP11B2 worked out at 54.5 nM; at human CYP11B1, 266 nM.

Consider `CC(=O)N1CC(Oc2cncc(N3C(=O)c4ccc(Cl)cc4C3(C)C)c2)C1` [Example 450, 2-[5-(1-Acetyl-azetidin-3-yloxy)-pyridin-3-yl]-5-chloro-3,3-dimethyl-2,3-dihydro-isoindol-1-one], for which the concentration giving a half-maximal response (EC50) at human CYP11B2 was 122 nM; on human CYP11B1, 20100 nM.

In the case of `CC1c2cc(Cl)ccc2C(=O)N1c1cccnc1` (stereo not drawn) [Example 118, 5-Chloro-3-methyl-2-pyridin-3-yl-2,3-dihydro-isoindol-1-one], the EC50 at human CYP11B2 is 123 nM; at human CYP11B1, 1250 nM.

Turning to `Cc1nccn1Cc1cncc(N2Cc3cc(Cl)ccc3C2=O)c1` [Example 111, 5-Chloro-2-[5-(2-methyl-imidazol-1-ylmethyl)-pyridin-3-yl]-2,3-dihydro-isoindol-1-one], the values for the EC50 at human CYP11B2 and at human CYP11B1 were 64.2 nM and 923 nM, respectively.

As to `COC(C)c1ccncc1N1CCc2cc(Cl)ccc2C1=O` (stereo not drawn) [Example 64, 6-Chloro-2-[4-(1-methoxy-ethyl)-pyridin-3-yl]-3,4-dihydro-2H-isoquinolin-1-one], the EC50 at human CYP11B2 came out at 127 nM; at human CYP11B1, 6310 nM.

Take `O=C1c2ccc(Cl)cc2CCN1c1cncc2ccccc12` [Example 73, 6-Chloro-3,4-dihydro-[2,4′]biisoquinolinyl-1-one]: the EC50 at human CYP11B2 was 13.5 nM; on human CYP11B1, 251 nM.

With `O=C1c2ccc(Cl)cc2CCN1c1cncc(CNc2cc[nH]n2)c1` [Example 262, 6-Chloro-2-{5-[(1H-pyrazol-3-ylamino)-methyl]-pyridin-3-yl}-3,4-dihydro-2H-isoquinolin-1-one], the values for the EC50 on human CYP11B2 and on human CYP11B1 were 14.1 nM and 300 nM, respectively.

Regarding `O=C1c2ccc(Cl)cc2CCN1c1cncc(Cn2ccnc2C(F)(F)F)c1` [Example 189, 6-Chloro-2-[5-(2-trifluoromethyl-imidazol-1-ylmethyl)-pyridin-3-yl]-3,4-dihydro-2H-isoquinolin-1-one], the EC50 at human CYP11B2 stood at 55.3 nM; on human CYP11B1, 710 nM.

On to `Cc1ncn(C)c1-c1cncc(N2CCc3cc(Cl)ccc3C2=O)c1` [Example 80, 6-Chloro-2-[5-(3,5-dimethyl-3H-imidazol-4-yl)-pyridin-3-yl]-3,4-dihydro-2H-isoquinolin-1-one], for which the figures for the EC50 at human CYP11B2 and at human CYP11B1 were 4.7 nM and 58.1 nM, respectively.

In the case of `CC1(C)c2cc(Cl)ccc2C(=O)N1c1cncc(CNC(=O)c2ccccn2)c1` [Example 434, Pyridine-2-carboxylic acid [5-(6-chloro-1,1-dimethyl-3-oxo-1,3-dihydro-isoindol-2-yl)-pyridin-3-ylmethyl]-amide], the figures for the EC50 at human CYP11B2 and at human CYP11B1 were 6.6 nM and 228 nM, respectively.

Regarding `O=C1c2ccc(Cl)cc2CCN1c1cncc(Cn2ccnc2Cl)c1` [Example 176, 6-Chloro-2-[5-(2-chloro-imidazol-1-ylmethyl)-pyridin-3-yl]-3,4-dihydro-2H-isoquinolin-1-one], the EC50 worked out at 9.8 nM on human CYP11B2 and 57.8 nM at human CYP11B1.

Take `Cc1cc(-c2cncc(N3CCc4cc(Cl)ccc4C3=O)c2)n(C)n1` [Example 422, 6-Chloro-2-[5-(2,5-dimethyl-2H-pyrazol-3-yl)-pyridin-3-yl]-3,4-dihydro-2H-isoquinolin-1-one]: the values for the EC50 on human CYP11B2 and on human CYP11B1 were 154 nM and 11100 nM, respectively.

With `CCc1nc(C)cn1Cc1cncc(N2CCc3cc(Cl)ccc3C2=O)c1` [Example 143, 6-Chloro-2-[5-(2-ethyl-4-methyl-imidazol-1-ylmethyl)-pyridin-3-yl]-3,4-dihydro-2H-isoquinolin-1-one], the EC50 on human CYP11B2 was 258 nM; at human CYP11B1, 4450 nM.

For the molecule `CC(c1cncc(N2CCc3cc(Cl)ccc3C2=O)c1)n1cncn1` (stereo not drawn) [Example 273, 6-Chloro-2-[5-(1-[1,2,4]triazol-1-yl-ethyl)-pyridin-3-yl]-3,4-dihydro-2H-isoquinolin-1-one], the figures for the EC50 at human CYP11B2 and at human CYP11B1 were 64 nM and 449 nM, respectively.

As to `O=C1c2ccc(Cl)cc2CCN1c1cncc(-c2cc(F)cc(F)c2)c1` [Example 233, 6-Chloro-2-[5-(3,5-difluoro-phenyl)-pyridin-3-yl]-3,4-dihydro-2H-isoquinolin-1-one], the EC50 on human CYP11B2 worked out at 271 nM; at human CYP11B1, 21600 nM.

On to `O=C1CCCCN1Cc1cncc(N2Cc3cc(Cl)ccc3C2=O)c1` [Example 114, 5-Chloro-2-[5-(2-oxo-piperidin-1-ylmethyl)-pyridin-3-yl]-2,3-dihydro-isoindol-1-one], for which the concentration giving a half-maximal response (EC50) was 424 nM at human CYP11B2 and 12800 nM at human CYP11B1.

On to `O=C1c2ccc(Cl)cc2CCN1c1cncc(C(O)c2cc(F)cc(F)c2)c1` (stereo not drawn) [Example 32, 6-Chloro-2-{5-[(3,5-difluoro-phenyl)-hydroxy-methyl]-pyridin-3-yl}-3,4-dihydro-2H-isoquinolin-1-one], for which the EC50 was found to be 46.8 nM at human CYP11B2 and 514 nM on human CYP11B1.

In the case of `COc1cncc(N2C(=O)c3ccc(Cl)cc3CC2C)c1` (stereo not drawn) [Example 85, 6-Chloro-2-(5-methoxy-pyridin-3-yl)-3-methyl-3,4-dihydro-2H-isoquinolin-1-one], the EC50 on human CYP11B2 is 59.6 nM; on human CYP11B1 it was 2860 nM.

For the molecule `CCC(=O)N[C@@H]1CCCc2c1cncc2N1C(=O)c2ccc(Cl)cc2[C@@H]1C` (single isomer, unassigned) [Example 359, N-[(R or S)-4-((S or R)-5-Chloro-3-methyl-1-oxo-1,3-dihydro-isoindol-2-yl)-5,6,7,8-tetrahydro-isoquinolin-8-yl]-propionamide], the figures for the EC50 on human CYP11B2 and at human CYP11B1 were 6 nM and 411 nM, respectively.

Consider `O=C1c2ccc(Cl)cc2C(C2CC2)N1c1cccnc1` (stereo not drawn) [Example 301, 5-Chloro-3-cyclopropyl-2-pyridin-3-yl-2,3-dihydro-isoindol-1-one], for which the results for the concentration giving a half-maximal response (EC50) at human CYP11B2 and on human CYP11B1 were 161 nM and 32500 nM, respectively.

On to `Cc1cccnc1C(=O)NCc1cncc(N2C(=O)c3ccc(Cl)cc3C2(C)C)c1` [Example 430, 3-Methyl-pyridine-2-carboxylic acid [5-(6-chloro-1,1-dimethyl-3-oxo-1,3-dihydro-isoindol-2-yl)-pyridin-3-ylmethyl]-amide], for which the EC50 on human CYP11B2 is 6.9 nM; at human CYP11B1, 737 nM.

Consider `CC(=O)N1CC[C@H](Oc2cncc(N3C(=O)c4ccc(Cl)cc4C3(C)C)c2)C1` [Example 443, 2-[5-((S)-1-Acetyl-pyrrolidin-3-yloxy)-pyridin-3-yl]-5-chloro-3,3-dimethyl-2,3-dihydro-isoindol-1-one], for which the EC50 stood at 9 nM at human CYP11B2 and 1170 nM at human CYP11B1.

Turning to `CC(Nc1cccc(F)c1)c1cncc(N2CCc3cc(Cl)ccc3C2=O)c1` (stereo not drawn) [Example 277, 6-Chloro-2-{5-[1-(3-fluoro-phenylamino)-ethyl]-pyridin-3-yl}-3,4-dihydro-2H-isoquinolin-1-one], the EC50 on human CYP11B2 amounted to 64.1 nM; at human CYP11B1, 163 nM.

For the origin of these results see patent US9133158B2, “Bicyclic dihydroisoquinoline-1-one derivatives” (Hoffmann-La Roche Inc., priority 2011, dated 2015).
